Measurements from patent publication US20080109040A1, “METHOD OF TREATING ARRHYTHMIAS” (priority 2002, published 2008).
Entries after “also recorded” stand apart in the source; their conditions may differ. Like-named read-outs stand apart in the source and are kept apart here.

Tests used:
[1] = Solubility of ranolazine in aqueous solutions as a function of pH; assay type: physicochemical
Method: In the following examples solutions of ranolazine in water or solutions with a pH above 6 are made up of ranolazine dihydrochloride. In the discussion portions of the following examples, concentrations of ranolazine found as a result of experiments are calculated as ranolazine free base.

M cell preparations = test system: M cell preparations; parameters: species or system canine; conditions: for Amplitude / Overshoot / RMP: BCL = 500 msec; for Reduction of Vmax: preparation type not stated
Method: The composition of the Tyrode's solution was (in mM): […] Action potential recordings: Transmembrane potentials were recorded using standard glass microelectrodes filled with 2.7 M KCl (10 to 20 MΩ DC resistance) connected to a high input-impedance amplification system (World Precision Instruments, Sarasota, Fla., USA). […] Data recorded at BCLs of 500 and 2000 msec are presented.

[2] = test system: guinea pig ventricular myocytes; assay: Action potential duration, EADs and triggered activity in guinea pig ventricular myocytes; conditions: for Reduction of ATX-II-induced prolongation of APD50: ATX-II 10-20 nmol/L; for Attenuation of ATXII-induced prolongation of APD50: ATXII 10-40 nmol/L
Method: Single ventricular myocytes were isolated from the hearts of adult, male guinea pigs (Harlan). In brief, the hearts were perfused with warm (35° C.) and oxygenated solutions in the following order: 1) Tyrode solution containing (in mmol/L) 140 NaCl, 4.6 KCl, 1.8 CaCl2, 1.1 MgSO4, 10 glucose and 5 HEPES, pH 7.4, for 5 minutes; 2) Ca^2+-free solution containing (in mmol/L) 100 NaCl, 30 KCl, 2 MgSO4, 10 glucose, 5 HEPES, 20 taurine, and 5 pyruvate, pH 7.4, for 5 minutes; and 3) Ca^2+-free solution containing sollagenase (120 units/ml) and albumin (2 mg/ml), for 20 minutes. At the end of the perfusion, the ventricles were removed, minced, and gently shaken for 10 minutes in solution #3. Isolated cells were harvested from the cell suspension.
Myocytes were placed into a recording chamber and superfused with Tyrode solution at 35° C. Drugs were applied via the superfusate. Action potentials were measured using glass microelectrodes filled with a solution containing (in mmol/L) 120 K-aspartate, 20 KCl, 1 MgCl2, 4 Na2ATP, 0.1 Na3GTP, 10 glucose, 1 EGTA and 10 HEPES (pH 7.2). Microelectrode resistance was 1-3 MΩ. An Axopatch-200 amplifier, a DigiData-1200A interface and pCLAMP6 software were used to perform electrophysiological measurements. Action potentials were induced by 5-ms depolarizing pulses applied at various frequencies as indicated. The duration of action potential was measured at 50% (APD50) and 90% (APD90) repolarization.
1) Ventricular myocytes were electrically stimulated at a frequency of 0.5, 1 or 2 Hz. Each myocyte was treated with 3, 10 and 30 μmol/L ranolazine. The effect of ranolazine on action potential duration at each pacing frequency was determined from 4 myocytes.
2) Action potentials were elicited at a frequency of 0.25 Hz, and the effect of ranolazine (10 μmol/L) on action potential duration was examined in the presence of 5 μmol/L quinidine. Experiments were performed on 4 myocytes.
Following the procedures and protocols of Example 21, guinea pig ventricular myocytes were electrically stimulated in the presence of ranolazine either alone or in the presence of ATX II [a sea anemone toxin known to mimic LQT3 syndrome by slowing Na^+-channel inactivation from the open state and thereby increasing the peak and late Na^+ current (INa) of cardiomyocytes]. ATXII is known to induce early afterdepolarizations (EADs) and triggered activity and ventricular tachycardia.
Action potentials were recorded using the whole-cell patch-electrode technique. Ventricular monophasic action potentials and electrograms were recorded from isolated hearts.
The ventricular APD of guinea pigs isolated myocytes and hearts was measured, respectively, at 50% (APD50) and 90% (MAPD90) repolarization.

[3] = test system: guinea pig isolated heart; assay: K-H buffer perfused guinea pig isolated heart: MAP duration, EADs and VT; conditions: for Effect on ATXII-induced EADs and MAP prolongation: ranolazine 10 μM; for Decrease of MAPS90: ranolazine 10 μmol/L; for Effect on ATXII-induced EADs and VT: ranolazine 5, 10 and 30 μM in the presence of ATXII
From the text: To study the effect of ranolazine on ATXII induced MAP (monophasic action potential) duration prolongation, EADs and ventricular tachyarrhythmia (VT), the K—H buffer perfused guinea pig isolated heart model was used.
Multiple EADs and sustained depolarizations were frequently observed.

[4] = M cell, low [K+]o, BCL = 2000 msec
[5] = ranolazine 10 μmol/L, ATX-II plus either E-4031 or 293B

COc1ccccc1OCC(O)CN1CCN(CC(=O)Nc2c(C)cccc2C)CC1 (racemic) [ranolazine, N-(2,6-dimethylphenyl)-4-[2-hydroxy-3-(2-methoxyphenoxy)propyl]-1-piperazineacetamide]
USP Solubility Class ([1]; solution pH 4.81): Freely Soluble
USP Solubility Class ([1]; solution pH 4.89): Soluble
USP Solubility Class ([1]; solution pH 4.90): Soluble
USP Solubility Class ([1]; solution pH 5.04): Soluble
USP Solubility Class ([1]; solution pH 5.35): Sparingly Soluble
USP Solubility Class ([1]; solution pH 5.82): Slightly soluble
USP Solubility Class ([1]; solution pH 6.46): Slightly soluble
USP Solubility Class ([1]; solution pH 6.73): Very slightly soluble
USP Solubility Class ([1]; solution pH 7.08): Very slightly soluble
USP Solubility Class ([1]; solution pH 7.59 (unbuffered water)): Very slightly soluble
USP Solubility Class ([1]; solution pH 7.79): Very slightly soluble
USP Solubility Class ([1]; solution pH 12.66): Very slightly soluble
Effect on APD (M cell preparations; M cell preparations, BCL 500 msec): abbreviation
Effect on APD50 and APD90 (M cell preparations; M cell, [K+]o = 4 mM, BCL = 2000 msec): concentration-dependent abbreviation
Effect on repolarization (M cell preparations; M cell, low [K+]o, BCL 500 msec): little change
Effect on APD50 (M cell preparations; [4]): concentration-dependent abbreviation
Effect on APD90 (M cell preparations; [4]): no significant change
Amplitude (M cell preparations; M cell, ranolazine 1.0 μM): 109 ± 9
Overshoot (M cell preparations; M cell, ranolazine 1.0 μM): 23 ± 10
RMP (M cell preparations; M cell, ranolazine 1.0 μM): −86 ± 3
Amplitude (M cell preparations; M cell, ranolazine 5.0 μM): 114 ± 8
Overshoot (M cell preparations; M cell, ranolazine 5.0 μM): 27 ± 7
RMP (M cell preparations; M cell, ranolazine 5.0 μM): −86 ± 3
Amplitude (M cell preparations; M cell, ranolazine 10.0 μM): 113 ± 9
Overshoot (M cell preparations; M cell, ranolazine 10.0 μM): 25 ± 8
RMP (M cell preparations; M cell, ranolazine 10.0 μM): −86 ± 2
Amplitude (M cell preparations; M cell, ranolazine 50.0 μM): 104 ± 7
Overshoot (M cell preparations; M cell, ranolazine 50.0 μM): 19 ± 3
RMP (M cell preparations; M cell, ranolazine 50.0 μM): −86 ± 5
Amplitude (M cell preparations; M cell, ranolazine 100.0 μM): 91 ± 19
Overshoot (M cell preparations; M cell, ranolazine 100.0 μM): 9 ± 13
RMP (M cell preparations; M cell, ranolazine 100.0 μM): −86 ± 7
Reduction of Vmax (M cell preparations; ranolazine 10 μM, BCL 500 msec): modest (n.s.)
Reduction of Vmax (M cell preparations; ranolazine 100 μM, BCL 500 msec): more substantial
Preparations in which d-sotalol-induced EAD activity was suppressed and APD abbreviated (M cell preparations; ranolazine 5-20 μM, 100 μM d-sotalol, M cell preparations): 4/4
Reduction of ATX-II-induced prolongation of APD50 ([2]; ranolazine 0.1 μmol/L): 29±1%
Reduction of ATX-II-induced prolongation of APD50 ([2]; ranolazine 0.3 μmol/L): 47±1%
Reduction of ATX-II-induced prolongation of APD50 ([2]; ranolazine 1 μmol/L): 63±3%
Attenuation of ATXII-induced prolongation of APD50 ([2]; ranolazine 1 μmol/L): 60±4%
Reduction of ATX-II-induced prolongation of APD50 ([2]; ranolazine 3 μmol/L): 79±1%
Attenuation of ATXII-induced prolongation of APD50 ([2]; ranolazine 3 μmol/L): 80±2%
Reduction of ATX-II-induced prolongation of APD50 ([2]; ranolazine 10 μmol/L): 86±2%
Effect on EADs [2, 5]: completely abolished the EADs
Reversal of the prolongation of APD50 [2, 5]: about 70%
Attenuation of ATXII-induced prolongation of APD50 ([2]; ranolazine 10 μmol/L): 86±2%
Suppression of quinidine-induced EADs and triggered activity ([2]; ranolazine 10 μmol/L, quinidine 2.5 μmol/L): effective in suppressing EADs; also recorded: effective in suppressing triggered activity; also recorded: suppressed EADs and TA
Effect on quinidine-induced action potential prolongation ([2]; ranolazine 10 μmol/L, quinidine 5 μmol/L, 0.25 Hz): attenuated the effect of quinidine
Reduction of ATX-II-induced prolongation of APD50 ([2]; ranolazine 30 μmol/L): 99±1%
Attenuation of ATXII-induced prolongation of APD50 ([2]; ranolazine 30 μmol/L): 99±1%
Effect on APD50 and APD90 ([2]; ranolazine 3, 10, 30 μmol/L, 0.5, 1, 2 Hz): moderate and concentration-dependent shortening
Effect on ATXII-induced EADs and MAP prolongation ([3]; ATXII 20 nM): reversed
Effect on ATXII-induced EADs and MAP prolongation ([3]; ATXII 20 nM, listed as Ranolazine): reduced or effectively abolished
Decrease of MAPS90 ([3]; ATX-II plus 293B): 8.3±0.1%
Decrease of MAPS90 ([3]; ATX-II plus E-4031): 24.5±0.1%
Effect on ATXII-induced VT ([3]; ranolazine 30 μM, ATXII 20 nM): reduced or effectively abolished
Effect on ATXII-induced EADs and VT [3]: VTs were terminated
Effect on ATXII-induced EADs and VT ([3]; listed as Ranolazine): significantly suppressed EADs and VT
